Tests used:
[1] = system: field poppy; test: Test D postemergence; type: in vivo, Papaver rhoeas; conditions: scale 0 to 100
Text: (§1) Seeds of plant species selected from bluegrass (annual bluegrass, Poa annua), blackgrass (Alopecurus myosuroides), canarygrass (Phalaris minor), chickweed (common chickweed, Stellaria media), galium (catchweed bedstraw, Galium aparine), bromegrass, down (downy bromegrass, Bromus tectorum), Russian thistle (Salsola kali), field poppy (Papaver rhoeas), field violet (Viola arvensis), foxtail, green (green foxtail, Setaria viridis), deadnettle (henbit deadnettle, Lamium amplexicaule), ryegrass, Ital. (Italian ryegrass, Lolium multiflorum), kochia (Kochia scoparia), lambsquarters (Chenopodium album), oilseed rape (Brassica napus), pigweed (Amaranthus retroflexus), chamomile (scentless chamomile, Matricaria inodora), speedwell (bird's-eye speedwell, Veronica persica), barley, spring (spring barley, Hordeum vulgare), wheat, spring (spring wheat, Triticum aestivum), buckwheat, wild (wild buckwheat, Polygonum convolvulus), wild mustard (Sinapis arvensis), oat, wild (wild oat, Avena fatua), radish, wild (wild radish, Raphanus raphanistrum), […]), barley, winter (winter barley, Hordeum vulgare), and wheat, winter (winter wheat, Triticum aestivum) were planted into a silt loam soil and treated preemergence with test chemicals formulated in a non-phytotoxic solvent mixture which included a surfactant. At the same time, these species were planted in pots containing Sunshine Redi-Earth® planting medium comprising spaghnum peat moss, vermiculite, starter nutrients and dolomitic limestone and treated with postemergence applications of the test chemicals formulated in the same manner. Plants ranged in height from 2 to 18 cm (1- to 4-leaf stage). Treated plants and controls were maintained in a controlled growth environment for 14 to 21 d after which time all species were compared to controls and visually evaluated. […] A dash (-) response means no test result.

[2] = system: corn; test: Test C preemergence; type: in vivo, Zea mays; conditions: for Plant response rating (scale of 0 to 100 where 0 is no effect and 100 is complete control): Corn, preemergence; for Corn plant response rating (0 to 100): Preemergence, visual rating after 13 to 15 d
Text: Seeds of plant species selected from blackgrass (Alopecurus myosuroides), ryegrass, Italian (Italian ryegrass, Lolium multiflorum), wheat (winter wheat, Triticum aestivum), galium (catchweed bedstraw, Galium aparine), corn (Zea mays), crabgrass, large (large crabgrass, Digitaria sanguinalis), foxtail, giant, (giant foxtail, Setaria faberii), johnsongrass (Sorghum halepense), lambsquarters (Chenopodium album), morningglory (Ipomoea coccinea), nutsedge, yellow (yellow nutsedge, Cyperus esculentus), pigweed (Amaranthus retroflexus), ragweed (common ragweed, Ambrosia elatior), soybean (Glycine max), barnyardgrass (Echinochloa crus-galli), oilseed rape (Brassica napus), waterhemp (common waterhemp, Amaranthus rudis), and velvetleaf (Abutilon theophrasti) were planted into a blend of loam soil and sand and treated preemergence with test chemicals formulated in a non-phytotoxic solvent mixture which included a surfactant. At the same time, plants selected from these crop and weed species and also chickweed (common chickweed, Stellaria media), oat, wild (wild oat, Avena fatua), and kochia (Kochia scoparia), were planted in pots containing Sunshine Redi-Earth® planting medium comprising spaghnum peat moss, vermiculite, starter nutrients and dolomitic limestone and treated with postemergence applications of test chemicals formulated in the same manner. Plants ranged in height from 2 to 18 cm (1- to 4-leaf stage) for postemergence treatments. […] A dash (-) response means no test result.

[3] = system: deadnettle; test: Test D preemergence; type: in vivo, Lamium amplexicaule; conditions: for Plant response rating (0 to 100), Deadnettle: 16 g ai/ha, 0 is no effect, 100 is complete control; for Plant response rating: Deadnettle: scale 0 to 100
Text: as §1

[4] = system: kochia; test: Test A postemergence; type: in vivo, Kochia scoparia; conditions: 0 to 100 scale (0 no effect, 100 complete control), approx. 10 d
Summary of the method: (§2)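 Visual 0–100 ratings (0 no effect, 100 complete control) made roughly 10 days after treatment, comparing greenhouse-grown plants to untreated controls. Formulated test chemicals, with surfactant, went either as directed soil spray at planting or onto 2–10 cm seedlings bearing one to two leaves.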

[5] = system: wheat, winter; test: Test D preemergence; type: in vivo, Triticum aestivum; conditions: for Plant response rating (0 to 100), Wheat, Winter: 16 g ai/ha, 0 is no effect, 100 is complete control; for Plant response rating: Wheat, Winter: scale 0 to 100
Text: as §1

[6] = system: wheat, spring; test: Test D preemergence; type: in vivo, Triticum aestivum; conditions: for Plant response rating (0 to 100), Wheat, Spring: 16 g ai/ha, 0 is no effect, 100 is complete control; for Plant response rating: Wheat, Spring: scale 0 to 100
Text: as §1

[7] = system: Russian thistle; test: Test D postemergence; type: in vivo, Salsola kali; conditions: scale 0 to 100
Text: as §1

[8] = system: kochia; test: Test A preemergence; type: in vivo, Kochia scoparia; conditions: 0 to 100 scale (0 no effect, 100 complete control)
Summary of the method: as §2

Row | Compound | Plant response rating: Field Poppy ([1]; 16 g ai/ha) | Plant response rating: Field Poppy ([1]; 31 g ai/ha) | Plant response rating: Field Poppy ([1]; 62 g ai/ha) | Plant response rating: Field Poppy ([1]; 125 g ai/ha) | Plant response rating (0 to 100), Deadnettle [3] | Plant response rating: Deadnettle ([3]; 31 g ai/ha) | Plant response rating: Deadnettle ([3]; 62 g ai/ha) | Plant response rating: Deadnettle ([3]; 125 g ai/ha) | Plant response rating, Kochia ([4]; 125 g ai/ha) | Plant response rating (0 to 100), Wheat, Winter [5] | Plant response rating: Wheat, Winter ([5]; 62 g ai/ha) | Plant response rating: Wheat, Winter ([5]; 125 g ai/ha) | Plant response rating (0 to 100), Wheat, Spring [6] | Plant response rating: Wheat, Spring ([6]; 62 g ai/ha) | Plant response rating: Wheat, Spring ([6]; 125 g ai/ha) | Plant response rating: Russian Thistle ([7]; 16 g ai/ha) | Plant response rating: Russian Thistle ([7]; 31 g ai/ha) | Plant response rating: Russian Thistle ([7]; 62 g ai/ha) | Plant response rating: Russian Thistle ([7]; 125 g ai/ha) | Plant response rating, Kochia ([8]; 125 g ai/ha) | further results
1 | FC(F)(F)COc1nc(-c2ccccc2)nn1Cc1ccnc(C(F)(F)F)c1 [Compound 24] | 60 | 75 | 80 | 100 | 30 | 80 | 85 | 100 | 90 | 15 | 20 | 20 | 15 | 25 | 15 | 65 | 75 | 85 | 85 | 80 | Plant response rating (scale of 0 to 100 where 0 is no effect and 100 is complete control) ([2]; 125 g ai/ha): 25; Plant response rating (scale of 0 to 100 where 0 is no effect and 100 is complete control) ([2]; 250 g ai/ha): 40; Corn plant response rating (0 to 100) ([2]; 31 g ai/ha): 0; Corn plant response rating (0 to 100) ([2]; 62 g ai/ha): 10; Plant response rating, Kochia ([4]; 500 g ai/ha): 90; Plant response rating, Kochia ([8]; 500 g ai/ha, approx. 10 d): 90
2 | CCOc1nc(-c2ccccc2)nn1Cc1ccnc(C(F)(F)F)c1 [Compound 27] | 75 | 80 | 85 | 100 | 80 | 100 | 100 | 100 | 90 | 25 | 30 | 30 | 15 | 20 | 35 | 75 | 80 | 85 | 85 | 100 | Plant response rating (scale of 0 to 100 where 0 is no effect and 100 is complete control) ([2]; 125 g ai/ha): 55; Plant response rating (scale of 0 to 100 where 0 is no effect and 100 is complete control) ([2]; 250 g ai/ha): 60; Corn plant response rating (0 to 100) ([2]; 31 g ai/ha): 25; Corn plant response rating (0 to 100) ([2]; 62 g ai/ha): 40; Plant response rating, Kochia ([4]; 500 g ai/ha): 90; Plant response rating, Kochia ([8]; 500 g ai/ha, approx. 10 d): 100
3 | COc1nc(-c2ccc(Cl)cc2)nn1Cc1ccnc(C(F)(F)F)c1 [Compound 28] | 65 | 65 | 65 | 70 | 20 | 75 | 95 | 100 | 90 | 15 | 25 | 20 | 10 | 20 | 25 | 70 | 75 | 85 | 85 | 70 | Plant response rating, Kochia ([4]; 500 g ai/ha): 90; Plant response rating, Kochia ([8]; 500 g ai/ha, approx. 10 d): 90
4 | Fc1ccc(-c2nc(OCC(F)(F)F)n(Cc3ccnc(C(F)(F)F)c3)n2)cc1 [Compound 30] | 70 | 90 | 98 | 100 | 85 | 95 | 100 | 100 | 90 | 15 | 25 | 35 | 25 | 35 | 45 | 80 | 90 | 90 | 90 | 100 | Plant response rating (scale of 0 to 100 where 0 is no effect and 100 is complete control) ([2]; 125 g ai/ha): 30; Plant response rating (scale of 0 to 100 where 0 is no effect and 100 is complete control) ([2]; 250 g ai/ha): 35; Corn plant response rating (0 to 100) ([2]; 31 g ai/ha): 5; Corn plant response rating (0 to 100) ([2]; 62 g ai/ha): 15; Plant response rating, Kochia ([4]; 500 g ai/ha): 90; Plant response rating, Kochia ([8]; 500 g ai/ha, approx. 10 d): 100
5 | FC(F)(F)COc1nc(-c2ccc(Cl)cc2)nn1Cc1ccnc(C(F)(F)F)c1 [Compound 31] | 75 | 80 | 98 | 100 | 80 | 80 | 90 | 100 | 90 | 20 | 20 | 30 | 30 | 40 | 45 | 70 | 80 | 85 | 90 | 90 | Plant response rating (scale of 0 to 100 where 0 is no effect and 100 is complete control) ([2]; 125 g ai/ha): 20; Plant response rating (scale of 0 to 100 where 0 is no effect and 100 is complete control) ([2]; 250 g ai/ha): 25; Corn plant response rating (0 to 100) ([2]; 31 g ai/ha): 0; Corn plant response rating (0 to 100) ([2]; 62 g ai/ha): 0; Plant response rating, Kochia ([4]; 500 g ai/ha): 90; Plant response rating, Kochia ([8]; 500 g ai/ha, approx. 10 d): 90
6 | CCOc1nc(-c2ccc(C(F)(F)F)cc2)nn1Cc1ccnc(C(F)(F)F)c1 [Compound 35, 4-[[5-ethoxy-3-[4-(trifluoromethyl)phenyl]-1H-1,2,4-triazole-1-yl]methyl]-2-(trifluoromethyl)pyridine] | 80 | 95 | 95 | 100 | 80 | 85 | 100 | 100 | 90 | 20 | 40 | 45 | 25 | 50 | 50 | 70 | 75 | 80 | 85 | 90 | Plant response rating (scale of 0 to 100 where 0 is no effect and 100 is complete control) ([2]; 125 g ai/ha): 35; Plant response rating (scale of 0 to 100 where 0 is no effect and 100 is complete control) ([2]; 250 g ai/ha): 45; Corn plant response rating (0 to 100) ([2]; 31 g ai/ha): 5; Corn plant response rating (0 to 100) ([2]; 62 g ai/ha): 15; Plant response rating, Kochia ([4]; 31 g ai/ha): 90; Plant response rating, Kochia ([8]; 31 g ai/ha): 90
